Reference: patent US20170066717A1, “NEW PHENYLAZETIDINECARBOXYLATE OR -CARBOXAMIDE COMPOUNDS” (INVENTIVA, priority 2014, published 2017)

How the values were obtained:
[1] = target: T1, NURR-1/RXRα (Homo sapiens, UniProt P19793); test: Transactivation test, NURR-1-Gal4/RXRα, luciferase reporter in Cos-7 cells; assay type: cell-based; settings: for Emax: COS-7, induction level relative to reference XCT0135908 at 2×10^−5 M (=100%), read-out: hNurr1_RXRaFL Emax (%); for EC50: Cos-7 cells, NURR-1-Gal4/RXRα, luciferase reporter, read-out: hNurr1_RXRaFL EC50
T1 construct: expressed in transfected cells; host or cells: Cos-7 cells
T1 sequence (P19793 whole entry, the tested form may be a part): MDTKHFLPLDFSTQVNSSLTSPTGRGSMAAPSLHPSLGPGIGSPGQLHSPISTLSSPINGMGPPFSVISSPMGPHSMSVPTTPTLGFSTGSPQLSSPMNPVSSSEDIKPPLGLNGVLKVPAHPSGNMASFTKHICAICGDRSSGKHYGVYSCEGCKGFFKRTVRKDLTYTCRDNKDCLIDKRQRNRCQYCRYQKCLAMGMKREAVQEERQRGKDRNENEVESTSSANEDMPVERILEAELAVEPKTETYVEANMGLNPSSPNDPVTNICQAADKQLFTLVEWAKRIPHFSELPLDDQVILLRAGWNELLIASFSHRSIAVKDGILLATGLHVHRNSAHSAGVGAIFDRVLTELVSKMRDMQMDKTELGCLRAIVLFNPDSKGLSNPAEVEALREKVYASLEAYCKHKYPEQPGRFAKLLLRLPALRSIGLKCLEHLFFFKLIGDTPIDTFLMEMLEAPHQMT
T1 sequence (P43354 whole entry partner, the tested form may be a part): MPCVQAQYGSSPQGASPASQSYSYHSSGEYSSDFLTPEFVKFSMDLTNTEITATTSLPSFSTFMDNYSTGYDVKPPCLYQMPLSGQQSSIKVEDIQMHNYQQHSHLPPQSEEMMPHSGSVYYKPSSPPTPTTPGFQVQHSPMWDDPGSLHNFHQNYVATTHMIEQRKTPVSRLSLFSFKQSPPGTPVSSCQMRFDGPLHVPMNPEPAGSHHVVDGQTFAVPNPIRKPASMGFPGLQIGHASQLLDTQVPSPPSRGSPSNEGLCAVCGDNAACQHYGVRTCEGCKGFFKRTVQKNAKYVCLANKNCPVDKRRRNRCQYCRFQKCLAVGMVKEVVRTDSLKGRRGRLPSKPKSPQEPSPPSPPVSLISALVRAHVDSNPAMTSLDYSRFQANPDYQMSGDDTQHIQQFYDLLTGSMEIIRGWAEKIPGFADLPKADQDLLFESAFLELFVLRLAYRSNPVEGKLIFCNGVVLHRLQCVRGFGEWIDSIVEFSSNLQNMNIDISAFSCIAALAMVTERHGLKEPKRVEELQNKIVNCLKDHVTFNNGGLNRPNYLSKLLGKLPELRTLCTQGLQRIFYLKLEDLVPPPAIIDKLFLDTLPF
T1 sequence (P04386 1-147 partner limits assumed): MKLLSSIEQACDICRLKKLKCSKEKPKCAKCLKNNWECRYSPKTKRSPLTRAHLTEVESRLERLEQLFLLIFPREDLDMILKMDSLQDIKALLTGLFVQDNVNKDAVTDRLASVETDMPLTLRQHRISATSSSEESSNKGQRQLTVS

[2] = target: T2, NURR-1/RXRγ (Homo sapiens, UniProt P48443); test: Transactivation test, NURR-1-Gal4/RXRγ, luciferase reporter in Cos-7 cells; assay type: cell-based; settings: for Emax: COS-7, induction level relative to reference XCT0135908 at 2×10^−5 M (=100%), read-out: hNurr1_RXRgFL Emax (%); for EC50: Cos-7 cells, NURR-1-Gal4/RXRγ, luciferase reporter, read-out: hNurr1_RXRgFL EC50
T2 construct: expressed in transfected cells; host or cells: Cos-7 cells
T2 sequence (P48443 whole entry, the tested form may be a part): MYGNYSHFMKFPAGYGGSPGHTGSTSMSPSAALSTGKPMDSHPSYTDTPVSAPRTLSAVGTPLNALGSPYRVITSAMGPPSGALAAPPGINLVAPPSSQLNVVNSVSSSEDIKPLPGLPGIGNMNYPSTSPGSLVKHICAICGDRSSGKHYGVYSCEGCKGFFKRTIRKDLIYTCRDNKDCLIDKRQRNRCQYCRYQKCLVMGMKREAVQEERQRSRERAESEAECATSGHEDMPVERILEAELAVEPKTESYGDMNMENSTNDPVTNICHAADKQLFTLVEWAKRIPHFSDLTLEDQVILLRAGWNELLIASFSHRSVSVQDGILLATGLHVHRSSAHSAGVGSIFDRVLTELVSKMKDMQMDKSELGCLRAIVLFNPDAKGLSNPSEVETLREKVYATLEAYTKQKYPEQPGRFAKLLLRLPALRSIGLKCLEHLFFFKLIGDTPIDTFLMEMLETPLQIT
T2 sequence (P43354 whole entry partner, the tested form may be a part): as the sequence (P43354 whole entry partner, the tested form may be a part) above
T2 sequence (P04386 1-147 partner limits assumed): as the sequence (P04386 1-147 partner limits assumed) above

[3] = Plasma pharmacokinetics in mice after oral administration; assay type: in vivo; settings: mouse, male C57/Bl6 mice, oral 10 mg/kg; for AUC: sampling 15 min to 7 h, log-linear trapezoidal method, read-out: AUCplasma; for Cmax: suspension in 1% methylcellulose/0.1% Poloxamer 188
Method: (§1) Three series of in vivo tests were carried out with compounds representative of the invention, for the purpose of determining their pharmacokinetic plasma profile and their brain penetration.
1. Study of the Plasma Phannacokinectis in Mice After Oral Administration
Male C57/B16 mice (25-30 g) originating from the establishment Janvier, Le Genest-St-Isle, France were used for this study (9 mice per dose). The animals were fed with standard feed for rodents (Purina Mills, St. Louis, Mo.), placed in cages and subjected to light/darkness cycles of 12 h/12 h, the temperature of the room being maintained at 22±2° C. and the humidity level at 55±10%.
The mice were not deprived food before the administration. Water was provided at will throughout the study. The test compound was admistered orally at 10 mg/kg. For the oral administration at 10 mg/kg, the animals were green, by gavage, 10 mL/kg of a suspension of the test compound, prepared in 1% methylcellulose, 400 cps/0.1% Poloxamer 188/water.
The animals were sacrificed under anesthesia at times 15 min, 30 min, 1 h, 3 h and 7 h after gavage. The blood was collected at each time, and from each animal sacrificed 0.5 mL of blood collected in 1.5 mL tubes containing 20 μL of evaporated anticoagulant (solution of sodium heparinate at 1000 IU/mL) was centrifuged at 4500 g for 3 min in order to obtain approximately 200 μL of plasma. The plasma was divided up into 2 aliquots of 70 μL minimum, which were stoted at −20° C. until they were treated by protein precipitation and then analysis by liquid chromatography coupled to tandem mass spectrometry (LC-MS/MS) in order to quantify the compound tested.
The pharmacokinetic plasma parameters in the mice after oral administration were determined using a non-compartmental approach with the Phoenix WinNonLin software. The area under the curve (AUC0-1) was determined bv the log-linear trapezoidal method. The tesults are brought together in the following table.

[4] = system: dopaminergic neurons of primary culture of rat embryo mesencephalon treated with MPP+; test: Neuroprotection in primary culture of rat embryo mesencephalon treated with MPP+ (count of tyrosine hydroxylase expressing cells); assay type: cell-based; settings: recombinant human BDNF 10 ng/mL = 100%, 2 days with MPP+
Method: Another in vitro test was carried out with the compounds according to the invention, for the purpose of verifying that the molecules indeed have the expected neuroprotective effect in vitro.
The compounds were tested in a model of primary culture of rat embryo mesencephalon treated with 1-methyl-4-phenylpyridinium (MPP+), which is the active metabolite of 1-methyl-4-phenyl-1,2,3,6-tetrahydropyridine (MPTP). MPP+ enters into dopananergic neurons via the dopamine transporter and causes the death of these dopaminergic neurons. The following protocol was used.
Gestating female rats (15 days of gestation) were euthanized and the rat embryos were removed. The mesencephalons were removed. The tissue was then dissociated mechanically and by using trypsin. The cells collected after centrifugation were distributed into 96-well plates and left to stand for 5 days. The culture conditions made it possible to obtain a cell layer composed of neurons (dopaminergic and others) and astrocytes. On the 6th day, the cells were optionally treated with MPP+ in the presence or absence of test compound. After 2 days of incubation, the cells were fixed and various cell labellings were carried out; staining of the nuclei with the Hoechst fluorescent label and immunolabelling of tyrosine hydroxylase. The cells expressing tyrosine hydroxylase were counted using an image analyzer coupled to an optical microscope.
Recombinant human BDNF trophic factor (10 ng/mL) was used as reference. The activities of the compounds are given as percentages of activity relative to the BDNF reference, the activity of which is arbitrarily defined as being equal to 100%.

[5] = Brain penetration in rats after intravenous administration; assay type: in vivo; settings: rat
Method: as §1
2. Study of the Brain Penetration in Rats After Intravenous Administration
Male Wistar rats (250-300 g) originating from the establishment Janvier, Le Genest-St-Isle, France were used for this study (4 rats per study). The animals were fed with standard feed for rodents (Purina Mills, St. Louis, Mo.), placed in cages and subjected to light/darkness cycles of 12 h/12 h, the room temperature being maintained at 22±2° C. and the humidity level at 55±10%. The rats were not deprived food before the administration. Water was provided at will throughout the study.
The test compound was administered intravenously at 4 mg/kg by infusion into the jugular vein for 4 hours. For the intravenous administration, the animals were infused with 12 mL/kg of a solution of the test compound, prepared in 2% Cremophor EL/0.9% NaCl.
The animals were sacrificed under anesthesia after 4 hours of infusion. The blood and the brain were collected from each sacrificed animal 0.5 mL of blood collected in 1.5 mL tubes containing 20 μL of evaporated anticoagulant (solution of sodium heparinate at 1000 IU/mL) was centrifuged at 4500 g for 3 min in order to obtain approximately 200 μL of plasma. The plasma was divided up into 2 aliquots of 70 μL minimum, which were stored at −20° C. until they were treated by protein precipitation and then analysis by liquid chromatography coupled to tandem mass spectrometry (LC-MS/MS) in order to quantify the compound tested.
The brains were immersed in liquid nitrogen directly after they were removed, then stored at −20° C. for analysis. The brains were then ground in the presence of an aqueous/organic solvent mixture in order to obtain a homogenate. These homogenates were then centrifuged and the compound tested was extracted from the supernatant obtained, by liquid-liquid extraction, and then quantified by LC-MS/MS.
The brain penetration in the rats is represented by the Kp, which is the partition coefficient between the brain and the plasma. It is calculated by the ratio of the concentration measured in the brain (Cmax brain) and the plasma (Cmax plasma) after the 4 hours of infusion.

SMILES | Emax [1] [%] | EC50 [1] [nM] | Emax [2] [%] | EC50 [2] [nM] | AUC [3] [ng·h/mL] | Cmax [3] [ng/mL] | melting point [°C] | percentage of activity relative to the BDNF reference ([4]; compound 1 μM) [%] | percentage of activity relative to the BDNF reference ([4]; compound 10 μM) [%] | Kp at 4 h ([5]; male, Wistar, intravenous, 4 mg/kg, ratio of Cmax brain to Cmax plasma after the 4 hours of infusion, rats, read-out: Kp (partition coefficient between the brain and the plasma)) | Cmax at 4 h ([5]; male Wistar rats, 4 mg/kg iv infusion into the jugular vein for 4 hours, plasma at end of infusion) [ng/mL]
CCC1COc2cc(C(F)(F)F)ccc2N1c1cccc(N2CC(C(=O)O)C2)c1 (stereo not drawn) [Example 217, 1-[3-[3-ethyl-7-(trifluoromethyl)-2,3-dihydro-1,4-benzoxazin-4-yl]phenyl]azetidine-3-carboxylic acid] | 109 | 14 | 125 | 46 | 30300 | 10200 | 61 to 74 | – | – | – | –
Cc1cn(-c2cccc(N3CC(C(=O)NCCc4c[nH]cn4)C3)c2)c2ccc(C(F)(F)F)cc12 [Example 155, N-[2-(1H-imidazol-4-yl)ethyl]-1-[3-[3-methyl-5-(trifluoromethyl)indol-1yl]phenyl]azetidine-3-carboxamide] | 123 | 4 | 116 | 5 | – | – | – | 49 | 94 | – | –
COCCNC(=O)C1CN(c2cccc(-n3cc(C)c4cc(C(F)(F)F)ccc43)c2)C1 [Example 173, N-(2-methoxyethyl)-1-[3-[3-methyl-5-(trifluoromethyly)indol-1-yl]phenyl]azetidine-3-carboxamide] | 103 | < 1 | 102 | 5 | – | – | – | 18 | 72 | – | –
Cc1cn(-c2cccc(N3CC(C(=O)NCCCn4ccnc4)C3)c2)c2ccc(C(F)(F)F)cc12 [Example 160] | 115 | 15 | 124 | 31 | – | – | – | 54 | 79 | – | –
CCC1CN(c2cccc(N3CC(C(=O)O)C3)c2)c2ccc(C(F)(F)F)cc2O1 (stereo not drawn) [Example 114, 1-[3-[2-ethyl-7-(trifluoromethyl)-2,3-dihydro-1,4-benzoxazin-4-yl]phenyl]azetidine-3-carboxylic acid] | 139 | 9 | 150 | 11 | – | – | – | 101 | 89 | – | –
CCCC1CN(c2cccc(N3CC(C(=O)O)C3)c2)c2ccc(C(F)(F)F)cc2O1 (stereo not drawn) [Example 117, 1-[3-[2-propyl-7-(tirfluormethyl)2,3-dihydro-1,4-benzoxazin-4-yl]phenyl]azetidine-3-carboxylic acid] | 103 | 9 | 125 | 4 | – | – | – | 75 | 84 | – | –
Cc1cc(N2CC(C(=O)O)C2)cc(-n2cc(C)c3nc(C(F)(F)F)ccc32)c1 [Example 58, 1-[3-methyl-5-[3-methyl;-5-(trifluoromethyl)pyrrol[3,2,-b]pyridine-1-yl]phenyl]azetidine-3-carboxylic acid] | 118 | 7 | 102 | 13 | – | – | – | 80 | 79 | – | –
Cc1cn(-c2cccc(N3CC(C(=O)NCCC#N)C3)c2)c2ccc(C(F)(F)F)cc12 [Example 159, N-(2-cyanoethyl)-1-[3-[3-methyl-5-(trifluoromethyl)indol-1-yl]phenyl]azetidine-3-carboxamide] | 115 | 3 | 110 | 6 | – | – | – | 73 | 101 | – | –
CNC(=O)C1CN(c2cccc(N3CC(C)(C)Oc4cc(C(F)(F)F)ccc43)c2)C1 [Example 274, 1-[3-[2,2-dimethyl-7-(trifluoromethyl)3H-1,4-nemzoxazin-4-yl]phenyl]-N-methylazetidine-3-carboxamide] | 110 | 6 | 110 | 8 | 576 | 252 | – | – | – | 3.06 | 337
Cc1cc(-c2cc(C(F)(F)F)cc3c2NCC(C)(C)O3)cc(N2CC(C(=O)O)C2)c1 [Example 64, 1-[3-[2,2,-dimethyl-7-(triflouormethyl)3,4-dihydro-1,4-benzoxazin-5-yl]-5-methylphenyl]azetidine-3-carboxylic acid] | 99 | 4 | 109 | 4 | – | – | – | 81 | 92 | – | –
Cc1cn(-c2cccc(N3CC(C(=O)NCCOCCO)C3)c2)c2ccc(C(F)(F)F)cc12 [Example 158, N-[2-(2-hydroxethoxy)ethyl]-1-[3-[3-methyl-5-(trifluoromethyl)indol-1-yl]phenyl]azetidine-3-carboxamide] | 92 | 2 | 125 | 4 | – | – | – | 54 | 77 | – | –
CC(Oc1ccc(C(F)(F)F)cc1-c1cccc(N2CC(C(=O)O)C2)c1)c1ccccc1 (stereo not drawn) [Example 98, 1-[3-[2-(1-phenylethoxy)-5-(trifluoromethyl)phenyl]phenyl]azetidine-3-carboxylic acid] | 51 | 5 | 42 | 7 | – | – | – | 86 | 132 | – | –
